According to patent US7053052B2, “Therapies involving mutated heat shock transcription factor” (priority 1997, dated 2006):
Entries after “also recorded” stand apart in the source; their conditions may differ.

Experiments:
[1] = system: endogenous hsp genes in HeLa-CAT cells; assay: Expression of endogenous hsps (anti-hsp western blot, 3H-leucine labeling/fluorography); type: cell-based, human
Experimental: Cells were scraped of dishes and lysed in buffer C. Aliquots containing equal amounts of cell protein as well as prestained molecular weight markers were applied to 8.5% SDS-PAGE gels. Following electrophoresis, proteins were transferred to Immobilon-P Transfer Membranes (Millipore Corp., Bedford, Mass.), and membranes were blocked by incubation with TBS (25 mM Tris-HCl, pH 8.0, 0.136 M NaCl, 2.7 mM KCl) with 2% nonfat dry milk. Appropriate sections of membranes were incubated with anti-HSF1 polyclonal antibody (Baler, R. et al., Mol. Cell. Biol., 13:2486–2496 (1993)), anti-Hsp antibodies (all from StressGen Biotechnologies Corp., Victoria, B C) or anti-actin antibody (Amersham, Arlington Heights, Ill.). Following three washes with TBS, membranes were reblocked and incubated with second antibody (horseradish peroxidase-conjugated anti-mouse or anti-rabbit IgG (Amersham). After several washes in TBS, membranes were developed using the ECL Western Blot Detection Kit (Amersham).
To avoid the apparent problem with low transfection efficiency altogether, the transfection approach was substituted by an infection approach. The mutHSF cDNA (HSF1(+)) was inserted behind a cytomegalovirus promoter flanked by adenoviral sequences in plasmid vector AC CMV pLpA SR (+). Human 293 cells expressing the adenovirus E1A region genes were co-transfected with plasmid vector lacking an inserted foreign gene or plasmid vector containing mutHSF and plasmid JM17 containing the bulk of adenovirus sequences. By recombination of sequences on the two types of plasmids, adenoviral genomes were created that lacked the EIA region (replication-defective) but contained a cytomegalovirus promoter (control virus) or a cytomegalovirus promoter linked to the mutHSF gene and that were packaged into defective virus particles (mutHSF virus)(See Graham and Prevec, 1991, for a description of the methodology used to create the adenovirus vehicles). Viral plaques were isolated and expanded, and the viral genomes were analyzed by restriction enzyme digestion. Infections with viruses were performed at a multiplicity of infection (MOI) of about 5. Three groups of 50% confluent cultures of HeLa-CAT cells were set up. The first group was infected with mutHSF virus (Ade-HSF1(+)), the second group with control virus (Ade), and the third group received no virus. The three groups of cultures were then incubated for 15, 24 and 36 hours, respectively, and were subsequently harvested. Extracts were prepared as before.
Even synthesis of the typically less inducible hsps such as hsp73 (also known as hsc70) and hsp60 was enhanced. […] The hsp90 antibody used may have detected both the inducible and constitutive forms of hsp90, masking a more dramatic induction of the inducible form. […]

rodent cell lines = assay: hsp overexpression in rodent cell lines; type: cell-based; conditions: several rodent cell lines
[2] = system: human hsp70B promoter-driven chloramphenicol acetyltransferase (CAT) gene; assay: hsp70B-CAT reporter gene assay in HeLa-CAT cells; type: cell-based
Experimental: CAT assays were performed using the chromatographic assay of Gorman, C. M. et al., Mol. Cell. Biol., 2:1044–1051 (1982)). DNA replication was assessed by a standard ^3H-thymidine incorporation assay. In most experiments, including all western blot assays, standardization was based on protein content. All protein determinations were made using the Bradford method. In a few experiments involving sorted cells, standardization was based on cell numbers. All experiments were repeated at least twice, and, in most cases, each data point was derived from assays of 3–5 parallel samples.
To find out whether HSF1(−) could function as a negatively acting factor, HeLa-CAT cells containing integrated copies of an hsp70B-chloramphenicol acetyltransferase (CAT) gene were co-transfected with an HSF1(−) and an EFGP-expressing construct. […] To determine whether elevated Hsp levels induced by heat preconditioning are required for development of tolerance measured as an increased rate of recovery from heat-induced translational arrest, cultures co-transfected with EGFP- and HSF1(−)-expressing constructs or transfected with EGFP-expressing construct only (control cultures) were mildly heat-preconditioned (41° C./1 hour) and, 3 hours later, subjected to a 44° C./30 minutes (severe) heat shock. […] Rates of protein synthesis were assessed by pulse-labeling cells with ^3H-leucine. […]

[3] = 15, 24, 36 hours after infection

Substance	Hsp90 levels (western blot) [1, 3]	expression of hsp72 and hsp27 (western blot) [1, 3]	synthesis of hsp73 and hsp60 (western blot) [1, 3]	pattern of hsp overexpression (rodent cell lines)	activation of hsp70B-CAT genes in the absence of stress ([2]; no heat shock, listed as mutHSF)	heat-induced Hsp accumulation (anti-Hsp72 western blot) ([1]; 41° C./1 hour heat shock)	heat-induced hsp70B-CAT reporter expression ([2]; 41° C./1 hour heat shock, FACS-isolated cells)
human HSF1d202–316 [HSF1(+)]	clearly increased	drastically increased	enhanced	hsp90 and, to a lesser extent, hsp25 were clearly overexpressed; the rate of hsp70 synthesis was only marginally enhanced	equally as well as or better than endogenous HSF1 activated by a moderately severe heat shock; also recorded: strongly activated	–	–
human HSF1d453–523 [HSF1(−)]	–	–	–	–	–	greatly reduced	severely inhibited
